Experimental data published in patent US12560591B2, “Methods of treatment with CD8 T cell-mediated immune therapy” (Providence Health & Services—Oregon, priority 2019, dated 2026).

Experiments:
CT26 tumors = test: CT26 tumor model: ALK5 inhibitor with chemoradiation (RT+5FU), tumor growth and survival; format: in vivo, mouse; conditions: FIG. 6B
Experimental: FIGS. 1A-1D are a series of panels showing that the TGFβR1 antagonist LY2157299 enhances chemo-radiation efficacy dependent on CD8α^+ cells in CT26 tumors. FIG. 1A is a treatment schema in the CT26 tumor model. Six to eight week old BALB/c mice were implanted subcutaneously in the left flank with 2×10^5 CT26 tumor cells. Seven days following implant, animals were randomized based on tumor size, and vehicle control or LY2157299 compound were administered by oral gavage twice daily every 12 hours at 150 mg/kg for 7 consecutive days. At day 14, some mice received five consecutive radiation treatments of 5 Gy targeted to tumor tissue along with 25 mg/kg injections of 5-fluorouracil (5FU) chemotherapy administered intraperitoneally on days 14, 16, and 18. LY treatment groups resumed BID oral dosing from days 21-27. Mean tumor growth (i) and survival (ii) were assessed three times per week up to 100 days or death (FIG. 1B). […] Arrows identify pSMAD2^+CD8^+ cells in vehicle mice. […] NS=not significant, *=p<0.05, **=p<0.01, ***=p<0.001.
(§1) FIGS. 6A-6D are a series of panels showing generation of tumor-specific immune memory following tumor eradication with TGFβ inhibition with chemoradiation. […] The number of mice cured over the total number of mice in each group is indicated in the top right corner. One representative experiment is shown reflective of two independent experiments. Mice who eradicated their tumors were rechallenged with CT26 and 4T1 tumors. CT26 tumor cells were rechallenged on the opposite flank as from the original cured tumor. In FIG. 6D, 4T1 and CT26 tumor establishment and growth was followed for up to 60 days post re-challenge. The number of tumors rejected per total mice rechallenged in each tumor type is indicated in the top right portion of the graph. ***=p<0.001
Animal studies and cell culture: C57BL/6, BALB/c, CD8Cre, Lyz2Cre, and Foxp3-eGFP-CreERT2 mice were purchased from the Jackson Laboratories (Bar Harbor, Maine). ALK5flox/flox mice were a generous gift from Andrew Weinberg (Providence Cancer Center). All transgenic mice were on C57BL/6 background. CT26, MC38, 4T1 and MCA205-OVA tumor cells were grown in DMEM medium supplemented with 10% heat-inactivated fetal bovine serum and 1% penicillin-streptomycin to 60-90% confluence prior to tumor implantation. All cells were washed 2× with 1×PBS and implanted subcutaneously in a 100 μl volume of 1×PBS in the lower flanks. 1×10^5 MC38 cells, 2×10^5 CT26 cells, 5×10^4 4 T1 cells, and 5×10^6 MCA205-OVA cells were used for tumor induction. Tumors were measured 3×/week until they reached the survival end-point of 144 mm^2. […] Following single cell preparation, cells were washed and resuspended in FACS buffer (1×PBS, 1% BSA, 2 mM EDTA) and counted prior to FACS staining using a Guava EasyCyte cytometer (Millipore). […]

CT26 cells = test: Rechallenge of cured mice with CT26 cells; format: in vivo, mouse; conditions: cured animals (RT/5-FU/LY3200882), rechallenge at day 73 post-implant, FIG. 6C-D
Description: as §1
(§2) In order to evaluate whether the improved efficacy of RT+5FU+LY (FIG. 1B) was due to the direct effect of ALK5 inhibition on CD8^+ T cells, LY treatment in ALK5^ΔCD8 mice was tested.

4T1 cell line = test: Rechallenge of cured mice with 4T1 cells; format: in vivo, mouse; conditions: cured animals (RT/5-FU/LY3200882), 4T1 implanted simultaneously on opposite flank, FIG. 6C-D
Description: as §1, §2

[1] = tested on: peripheral blood CD3^+CD4^−CXCR3^+ T cells; test: HNSCC patients, neoadjuvant anti-PD-1: peripheral blood CXCR3+ T cells; format: in vivo, human; conditions: one week after first dose of nivolumab 240 mg IV, FIG. 13B
Experimental: FIGS. 13A-13D are a series of panels showing change in CXCR3^+ cells in response to checkpoint blockade. […] Peripheral blood was drawn at baseline and one week after anti-PD-1 therapy (nivolumab). Surgery was performed at week six for pathologic assessment. […] Patients are grouped by nodal status following neoadjuvant treatment (ypN). FIGS. 13C and 13D show HPV+ patients from FIG. 13B and HPV-patients from FIG. 13B, respectively. Given the low number of patient(s) with residual nodal disease (ypN+), statistics could not be accurately performed in the HPV+ and HPV− subgroups.
Patients with locoregionally advanced HNSCC were treated with anti-PD-1 (nivolumab, 240 mg, IV) three times Q2W. Radiation was administered following the first anti-PD-1 treatment, and surgery was performed at week 6 to assess pathologic status. Patients also received stereotactic body radiation therapy (SBRT) following the first dose of nivolumab. Peripheral blood was drawn at baseline and one week after administration of the first dose of nivolumab. […] As HPV+ and HPV-HNSCC have marked differences in natural history and/or behavior, these cohorts were also analyzed separately (FIGS. 13C and 13D). When comparing response to neoadjuvant therapy in the HPV+ and HPV− cohorts separately, the change in percent CXCR3^+CD3^+CD4^− T cells was more distinct.

Row | Molecule | tumor cures (animals cured of total) (CT26 tumors; CT26, LY3200882 with chemoradiation (RT/5-FU)) | median survival (CT26 tumors; CT26, LY3200882 with chemoradiation, p<0.001 vs RT+5FU) | tumor rechallenge outcome (CT26 cells) | tumor rechallenge outcome (4T1 cell line) | change in peripheral blood CD3^+CD4^−CXCR3^+ T cells vs nodal status [1]
1 | CC(C)(O)c1cc(Nc2cc(Oc3cn(C4CC4)nc3C3CCOCC3)ccn2)ccn1 [LY3200882] | 6 of 7 | not reached | rejected tumor rechallenge | but not the immunologically distinct 4T1 cell line | 
2 | nivolumab: anti-PD-1 antibody |  |  |  |  | decrease in CD3^+CD4^−CXCR3^+ T cells following neoadjuvant nivolumab correlated with clearance of nodal disease
